This note sets out measurements from patent publication US9290454B2, “Substituted isoquinolines as CRTH2 receptor modulators” (Merck Sharp & Dohme Corp., priority 2012, dated 2016).

pKi: −log10 of the molar value.

Chain of hCRTH2 (Q9Y5Y4 whole entry): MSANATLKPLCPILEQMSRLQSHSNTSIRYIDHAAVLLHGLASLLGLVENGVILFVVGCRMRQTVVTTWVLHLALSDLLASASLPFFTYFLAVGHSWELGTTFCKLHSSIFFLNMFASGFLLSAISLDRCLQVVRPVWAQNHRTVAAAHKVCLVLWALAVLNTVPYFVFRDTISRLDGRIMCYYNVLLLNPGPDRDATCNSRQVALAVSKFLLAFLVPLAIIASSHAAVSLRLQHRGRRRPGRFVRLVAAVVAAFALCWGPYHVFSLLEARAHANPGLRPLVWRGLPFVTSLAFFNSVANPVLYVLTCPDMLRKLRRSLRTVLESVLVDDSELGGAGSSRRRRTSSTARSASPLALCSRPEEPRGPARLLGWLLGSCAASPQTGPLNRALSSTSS

In the assay the target is hCRTH2 (Homo sapiens (Human), UniProt Q9Y5Y4). Briefly: Radioligand binding assay ([3H]-PGD2, SPA or filtration). Particulars: [3H]-PGD2 competition, membrane protein from HEK-hCRTH2 cell line, room temperature, SPA or filtration format. The procedure:
Radioligand binding was performed using filtration or scintillation proximity assay (SPA) technology. SPA assays were done at room temperature in 10 mM HEPES pH 7.4, 1 mM EDTA containing 2 mM MnCl2 and 16 nM [^3H]-PGD2 (PerkinElmer, Waltham, Mass.) (164 Ci mmol-1), in a final volume of 0.05 mL. Competing ligands were diluted in dimethylsulfoxide and added using very low volumes (500 nL). The reaction was initiated by the addition of a mixture of 3.52 ug of membrane protein prepared from a human embryonic kidney (HEK)-hCRTH2 cell line adhered to 140 ug of wheatgerm agglutinin SPA beads (PerkinElmer). Total and non-specific binding were determined in the absence and the presence of a CRTH2 antagonist, respectively. The reaction was routinely conducted for 60 minutes at room temperature followed by centrifugation for 5 minutes at 1000 RPM. The radioactivity was measured with a TopCountNXT (PerkinElmer). Filtration binding assays were done in a similar way with minor differences. The assay volume was 0.20 mL and competing ligands in dimethylsulfoxide were added in 2 uL. [^3H]-PGD2 was used at 0.6 nM, and reactions were initiated by the addition of 10 ug of membrane protein. Reactions were terminated by filtration through GF/C filter plates (PerkinElmer) presoaked in 10 mM HEPES. After washing with buffer, plates were dried in a 50° C. oven for 1 h, scintillation cocktail was added and radioactivity was measured. Results determined using the SPA-based assay were similar to those from the filtration binding assay. Table A (below) sets forth the results of the binding assay for representative compounds of the invention.
As usually defined, the pKi is the Ki on a negative log10 scale, so that one unit is a factor of ten. In the case of `COc1ccccc1-n1c(CCCCC(=O)O)cc2cc(C(=O)N[C@H](C)c3ccc(F)cc3)ccc2c1=O` (single isomer, unassigned) [Example 3.6], the pKi is 6.44.
Under `COc1ccccc1-n1c(CCCCC(=O)O)cc2cc(C(=O)N[C@H](C)c3ccc(F)cc3)ccc2c1=O` (single isomer, unassigned) [Example 3.7] stands 7.73; under `C[C@@H](NC(=O)c1ccc2c(=O)n(Cc3ccccc3)c(CCCCC(=O)O)cc2c1)c1ccc(F)cc1` [Example 1.1, (R)-5-(2-benzyl-6-((1-(4-fluorophenyl)ethyl)carbamoyl)-1-oxo-1,2-dihydroisoquinolin-3-yl)pentanoic acid], 7.42.
On to `C[C@@H](NC(=O)c1ccc2c(=O)n(Cc3ccc(F)cc3)c(CCCCC(=O)O)cc2c1)c1ccc(F)cc1` [Example 1.2, (R)-5-(2-(4-fluorobenzyl)-6-((1-(4-fluorophenyl)ethyl)carbamoyl)-1-oxo-1,2-dihydroisoquinolin-3-yl)pentanoic acid], for which the pKi was 7.31.
The figure for `C[C@@H](NC(=O)c1ccc2c(=O)n(-c3ccc(F)cc3)c(CC(=O)O)cc2c1)c1ccc(F)cc1` [Example 2.1, (R)-2-(2-(4-fluorophenyl)-6-((1-(4-fluorophenyl)ethyl)carbamoyl)-1-oxo-1,2-dihydroisoquinolin-3-yl)acetic acid] is 5.31.
In turn, `O=C(O)CCCCc1cc2cc(C(=O)N[C@@H]3CCCc4ccccc43)ccc2c(=O)n1-c1ccc(F)cc1` [Example 3.1, (R)-5-(2-(4-fluorophenyl)-1-oxo-6-((1,2,3,4-tetrahydronaphthalen-1-yl)carbamoyl)-1,2-dihydroisoquinolin-3-yl)pentanoic acid] had a negative-log Ki (pKi) of 8.24.
The compound `O=C(O)CCCCc1cc2cc(C(=O)N[C@@H]3CCCc4cc(F)ccc43)ccc2c(=O)n1-c1ccc(F)cc1` [Example 3.2, (R)-5-(6-((6-fluoro-1,2,3,4-tetrahydronaphthalen-1-yl)carbamoyl)-2-(4-fluorophenyl)-1-oxo-1,2-dihydroisoquinolin-3-yl) pentanoic acid] showed a negative-log Ki (pKi) of 8.19.
Take `COc1ccc(-n2c(CCCCC(=O)O)cc3cc(C(=O)N[C@H](C)c4ccc(F)cc4)ccc3c2=O)cc1` [Example 3.3, (R)-5-(6-((1-(4-fluorophenyl)ethyl)carbamoyl)-2-(4-methoxyphenyl)-1-oxo-1,2-dihydroisoquinolin-3-yl)pentanoic acid]: the pKi is 8.09.
Take `C[C@@H](NC(=O)c1ccc2c(=O)n(-c3ccc(C#N)cc3)c(CCCCC(=O)O)cc2c1)c1ccc(F)cc1` [Example 3.4, (R)-5-(2-(4-cyanophenyl)-6-((1-(4-fluorophenyl)ethyl)carbamoyl)-1-oxo-1,2-dihydroisoquinolin-3-yl)pentanoic acid]: the pKi is 8.05.
Compound `COc1cccc(-n2c(CCCCC(=O)O)cc3cc(C(=O)N[C@H](C)c4ccc(F)cc4)ccc3c2=O)c1` [Example 3.5, (R)-5-(6-((1-(4-fluorophenyl)ethyl)carbamoyl)-2-(3-methoxyphenyl)-1-oxo-1,2-dihydroisoquinolin-3-yl)pentanoic acid] gave a pKi of 7.88.
Under `C[C@@H]1CN(c2ccc(F)cc2)CCN1C(=O)c1ccc2c(=O)n(-c3ccc(F)cc3)c(CCCCC(=O)O)cc2c1` [Example 4.1, (R)-5-(2-(4-fluorophenyl)-6-(4-(4-fluorophenyl)-2-methylpiperazine-1-carbonyl)-1-oxo-1,2-dihydroisoquinolin-3-yl)pentanoic acid] stands 7.65; under `C[C@@H]1CN(c2ccccc2)CCN1C(=O)c1ccc2c(=O)n(-c3ccc(F)cc3)c(CCCCC(=O)O)cc2c1` [Example 4.2, (R)-5-(2-(4-fluorophenyl)-6-(2-methyl-4-phenylpiperazine-1-carbonyl)-1-oxo-1,2-dihydro-isoquinolin-3-yl)pentanoic acid], 7.87; under `O=C(O)CCCCc1cc2cc(C(=O)NC3CC(=O)Nc4ccccc43)ccc2c(=O)n1-c1ccc(F)cc1` (stereo not shown) [Example 4.3, 5-(2-(4-fluorophenyl)-1-oxo-6-((2-oxo-1,2,3,4-tetrahydroquinolin-4-yl)carbamoyl)-1,2-dihydroisoquinolin-3-yl)pentanoic acid], 7.68.
Under `C[C@@H](NC(=O)c1ccc2c(=O)n(-c3ccc(F)cc3)c(CCCCC(=O)O)cc2c1)c1ccc(F)cc1` [Example 4.4, (R)-5-(2-(4-fluorophenyl)-6-((1-(4-fluorophenyl)ethyl)carbamoyl)-1-oxo-1,2-dihydroisoquinolin-3-yl)pentanoic acid] stands 8.29; under `O=C(O)CCCCc1cc2cc(-c3cc(Cc4ccc(F)cc4)on3)ccc2c(=O)n1-c1ccc(F)cc1` [Example 5.1, 5-(6-(5-(4-fluorobenzyl)isoxazol-3-yl)-2-(4-fluorophenyl)-1-oxo-1,2-dihydroisoquinolin-3-yl)pentanoic acid], 7.99.
The compound `CC(c1ccc(F)cc1)c1nc(-c2ccc3c(=O)n(-c4ccc(F)cc4)c(CCCCC(=O)O)cc3c2)no1` (stereo not shown) [Example 7.3, 5-(2-(4-fluorophenyl)-6-(5-(1-(4-fluorophenyl)ethyl)-1,2,4-oxadiazol-3-yl)-1-oxo-1,2-dihydroisoquinolin-3-yl)pentanoic acid] had a pKi of 7.90.
Turning to `O=C(O)CCCCc1cc2cc(-c3noc(-c4ccc(C(F)(F)F)cc4)n3)ccc2c(=O)n1-c1ccc(F)cc1` [Example 7.4, 5-(2-(4-fluorophenyl)-1-oxo-6-(5-(4-(trifluoromethyl)phenyl)-1,2,4-oxadiazol-3-yl)-1,2-dihydroisoquinolin-3-yl)pentanoic acid], the pKi is 7.83.
The figure for `C[C@@H](NC(=O)c1ccc2c(=O)n(-c3ccc(F)cc3)c(CCCCC(=O)NS(=O)(=O)C3CC3)cc2c1)c1ccc(F)cc1` [Example 8.2, (R)-3-(5-(cyclopropanesulfonamido)-5-oxopentyl)-2-(4-fluorophenyl)-N-(1-(4-fluorophenyl)ethyl)-1-oxo-1,2-dihydroisoquinoline-6-carboxamide] is 7.83; for `C[C@@H]1CN(c2ccc(F)cc2)CCN1C(=O)c1ccc2c(=O)n(-c3ccc(F)cc3)c(CCCCC(=O)NS(=O)(=O)C3CC3)cc2c1` [Example 8.3, (R)-N-(cyclopropylsulfonyl)-5-(2-(4-fluorophenyl)-6-(4-(4-fluorophenyl)-2-methylpiperazine-1-carbonyl)-1-oxo-1,2-dihydroisoquinolin-3-yl)pentanamide] it is 7.77.
`C[C@@H]1CN(c2ccccc2)CCN1C(=O)c1ccc2c(=O)n(-c3ccc(F)cc3)c(CCCCC(=O)NS(=O)(=O)C3CC3)cc2c1` [Example 8.4, (R)-N-(cyclopropylsulfonyl)-5-(2-(4-fluorophenyl)-6-(2-methyl-4-phenylpiperazine-1-carbonyl)-1-oxo-1,2-dihydroisoquinolin-3-yl)pentanamide]: the negative-log Ki (pKi) was 7.43.
For `O=C(CCCCc1cc2cc(-c3cc(Cc4ccc(F)cc4)on3)ccc2c(=O)n1-c1ccc(F)cc1)NS(=O)(=O)C1CC1` [Example 8.5, N-(cyclopropylsulfonyl)-5-(6-(5-(4-fluorobenzyl)isoxazol-3-yl)-2-(4-fluorophenyl)-1-oxo-1,2-dihydroisoquinolin-3-yl)pentanamide], the pKi was 7.77.
Regarding `O=C(CCCCc1cc2cc(-c3noc(Cc4ccc(F)cc4)n3)ccc2c(=O)n1-c1ccc(F)cc1)NS(=O)(=O)C1CC1` [Example 8.6, N-(cyclopropylsulfonyl)-5-(6-(5-(4-fluorobenzyl)-1,2,4-oxadiazol-3-yl)-2-(4-fluorophenyl)-1-oxo-1,2-dihydroisoquinolin-3-yl)pentanamide], the pKi was 7.76. The pKi values of the last two compounds are within 0.2 log units of each other.
